Measured values published in the supplement of paper PMC10307832.

Tests used:
Assay in all cases: relative viability (nuclei count vs DMSO), 5 days (fraction); higher = more cells survive
Salubrinal + Pemetrexed = compound: O=C(/C=C/c1ccccc1)NC(NC(=S)Nc1cccc2cccnc12)C(Cl)(Cl)Cl [Salubrinal] + Nc1nc2[nH]cc(CCc3ccc(C(=O)N[C@@H](CCC(=O)O)C(=O)O)cc3)c2c(=O)[nH]1 [Pemetrexed] (partner 0.2 µM)
In short: (§1)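 Lung cancer cell lines in 1536-well plates were dosed by pin tool the day after seeding, either with one drug alone or with a fixed anchor-drug dose plus five library-drug doses (not always all listed) in √10 steps. After 5 days, cells were fixed and their nuclei stained in one step (final 0.05% Triton X-100, 1% formaldehyde, 1 ug/ml Hoechst), then counted on 4× images. Relative viability is the nuclei count in treated wells divided by that in vehicle wells. Values are medians of duplicate plates.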

Salubrinal + Dasatinib = compound: O=C(/C=C/c1ccccc1)NC(NC(=S)Nc1cccc2cccnc12)C(Cl)(Cl)Cl [Salubrinal] + Cc1nc(Nc2ncc(C(=O)Nc3c(C)cccc3Cl)s2)cc(N2CCN(CCO)CC2)n1 [Dasatinib] (partner 0.075 µM)
In short: as §1

Salubrinal + Foretinib = compound: O=C(/C=C/c1ccccc1)NC(NC(=S)Nc1cccc2cccnc12)C(Cl)(Cl)Cl [Salubrinal] + COc1cc2c(Oc3ccc(NC(=O)C4(C(=O)Nc5ccc(F)cc5)CC4)cc3F)ccnc2cc1OCCCN1CCOCC1 [Foretinib] (partner 0.25 µM)
In short: as §1

[1] = compound: Cc1ccc2nc(NCCN)c3ncc(C)n3c2c1 + CC(=O)c1c(C)c2cnc(Nc3ccc(N4CCNCC4)cn3)nc2n(C2CCCC2)c1=O [Palbociclib] (partner 0.5 µM)
In short: as §1

For UMC-11, the relative viability (Salubrinal + Pemetrexed; first compound 0.08 µM) was 0.766, the relative viability (Salubrinal + Pemetrexed; first compound 0.253 µM) was 0.675 and the relative viability (Salubrinal + Pemetrexed; first compound 0.8 µM) was 0.968. For the same cell line, the relative viability (Salubrinal + Pemetrexed; first compound 2.53 µM) was 0.729, the relative viability (Salubrinal + Pemetrexed; first compound 8 µM) was 0.726 and the relative viability (Salubrinal + Dasatinib; first compound 0.08 µM) was 0.654. For the same cell line, the relative viability (Salubrinal + Dasatinib; first compound 0.253 µM) was 0.306, the relative viability (Salubrinal + Dasatinib; first compound 0.8 µM) was 0.621 and the relative viability (Salubrinal + Dasatinib; first compound 2.53 µM) was 0.458. For the same cell line, the relative viability (Salubrinal + Dasatinib; first compound 8 µM) was 0.471, the relative viability (Salubrinal + Foretinib; first compound 0.08 µM) was 1.17 and the relative viability (Salubrinal + Foretinib; first compound 0.253 µM) was 1. It also gave a relative viability (Salubrinal + Foretinib; first compound 0.8 µM) of 1.13, a relative viability (Salubrinal + Foretinib; first compound 2.53 µM) of 1.1 and a relative viability (Salubrinal + Foretinib; first compound 8 µM) of 1.21. For the same cell line, the relative viability ([1]; first compound 0.04 µM) was 0.34, the relative viability ([1]; first compound 0.1265 µM) was 0.322 and the relative viability ([1]; first compound 0.4 µM) was 0.322. The relative viability ([1]; first compound 1.265 µM) was 0.317 and the relative viability ([1]; first compound 4 µM) was 0.341.
